For orientation: inhibition means the change of the read-out against control, counted positive when it falls.

For assay [1], the target named is Vascular endothelial growth factor receptor 3 (Homo sapiens) (UniProt P35916). The settings on record: Compound concentration 1000.0 nM.
Assay [2] has as its target Activin receptor type-1-like (Homo sapiens) (UniProt P37023). Conditions: Compound concentration 1000.0 nM.
Assay [3] addresses Angiopoietin-1 receptor (Homo sapiens) (UniProt Q02763). Conditions: Compound concentration 1000.0 nM.
Assay [4] concerns the target Calcium/calmodulin-dependent protein kinase kinase 2 (Homo sapiens) (UniProt Q96RR4). Conditions: Compound concentration 1000.0 nM.
Assay [5] addresses Citron Rho-interacting kinase (Homo sapiens) (UniProt O14578). The settings on record: Compound concentration 1000.0 nM.
In assay [6] the target is Mitogen-activated protein kinase kinase kinase 15 (Homo sapiens) (UniProt Q6ZN16). The settings on record: Compound concentration 1000.0 nM.
Assay [7] addresses Serine/threonine-protein kinase 38 (Homo sapiens) (UniProt Q15208). The settings on record: Compound concentration 1000.0 nM.
The target of assay [8] is BDNF/NT-3 growth factors receptor (Homo sapiens) (UniProt Q16620). The settings on record: Compound concentration 1000.0 nM.
Assay [9] has as its target T1, Inhibitor of nuclear factor kappa-B kinase subunit beta (Homo sapiens) (UniProt O14920).
T1 sequence (whole entry): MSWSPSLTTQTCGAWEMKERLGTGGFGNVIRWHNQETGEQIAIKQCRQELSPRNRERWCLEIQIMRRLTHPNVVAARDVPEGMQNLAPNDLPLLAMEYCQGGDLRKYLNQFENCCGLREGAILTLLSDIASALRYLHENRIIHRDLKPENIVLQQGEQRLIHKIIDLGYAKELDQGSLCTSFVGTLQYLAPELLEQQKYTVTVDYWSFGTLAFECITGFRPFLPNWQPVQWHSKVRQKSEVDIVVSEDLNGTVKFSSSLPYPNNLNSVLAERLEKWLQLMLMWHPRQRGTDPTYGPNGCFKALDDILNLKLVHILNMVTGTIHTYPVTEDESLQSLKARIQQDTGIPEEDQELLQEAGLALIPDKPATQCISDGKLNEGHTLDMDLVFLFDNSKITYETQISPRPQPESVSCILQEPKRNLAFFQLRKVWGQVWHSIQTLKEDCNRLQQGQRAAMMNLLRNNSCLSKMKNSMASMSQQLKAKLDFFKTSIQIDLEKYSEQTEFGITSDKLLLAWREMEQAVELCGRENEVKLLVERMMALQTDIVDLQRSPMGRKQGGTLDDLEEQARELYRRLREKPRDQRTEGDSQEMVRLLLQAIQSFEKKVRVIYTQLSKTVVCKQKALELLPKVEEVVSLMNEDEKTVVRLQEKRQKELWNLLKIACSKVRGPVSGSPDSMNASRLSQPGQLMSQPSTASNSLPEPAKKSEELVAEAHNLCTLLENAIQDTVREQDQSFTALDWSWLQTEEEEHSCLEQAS
The settings on record: Compound concentration 1000.0 nM.

Assay [10] concerns the target Misshapen-like kinase 1 (Homo sapiens) (UniProt Q8N4C8). Conditions: Compound concentration 1000.0 nM.
Assay [11] concerns the target T2, Discoidin domain-containing receptor 2 (Homo sapiens) (UniProt Q16832).
T2 sequence (whole entry): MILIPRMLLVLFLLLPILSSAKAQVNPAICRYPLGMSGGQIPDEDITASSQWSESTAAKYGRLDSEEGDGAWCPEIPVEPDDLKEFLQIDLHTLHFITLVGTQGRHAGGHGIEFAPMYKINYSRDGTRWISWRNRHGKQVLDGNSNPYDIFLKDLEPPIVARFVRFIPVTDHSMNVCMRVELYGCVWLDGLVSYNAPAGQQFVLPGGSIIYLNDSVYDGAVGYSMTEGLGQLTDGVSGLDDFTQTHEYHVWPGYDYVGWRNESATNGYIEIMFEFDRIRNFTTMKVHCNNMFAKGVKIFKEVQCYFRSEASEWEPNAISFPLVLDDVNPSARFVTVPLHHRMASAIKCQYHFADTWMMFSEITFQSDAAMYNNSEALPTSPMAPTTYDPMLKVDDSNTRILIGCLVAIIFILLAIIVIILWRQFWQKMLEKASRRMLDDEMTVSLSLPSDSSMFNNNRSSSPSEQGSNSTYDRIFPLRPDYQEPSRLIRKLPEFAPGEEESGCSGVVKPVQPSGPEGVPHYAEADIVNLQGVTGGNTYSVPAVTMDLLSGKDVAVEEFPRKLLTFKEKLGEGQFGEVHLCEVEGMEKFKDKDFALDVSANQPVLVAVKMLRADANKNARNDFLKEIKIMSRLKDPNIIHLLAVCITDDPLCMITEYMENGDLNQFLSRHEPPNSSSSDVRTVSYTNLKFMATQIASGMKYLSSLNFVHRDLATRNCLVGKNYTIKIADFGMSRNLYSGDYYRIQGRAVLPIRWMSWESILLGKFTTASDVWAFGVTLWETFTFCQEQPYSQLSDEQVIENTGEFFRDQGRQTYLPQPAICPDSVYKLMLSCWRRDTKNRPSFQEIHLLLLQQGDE
Conditions: Compound concentration 1000.0 nM.

For assay [12], the target named is Casein kinase I isoform alpha (Homo sapiens) (UniProt P48729). Conditions: Compound concentration 1000.0 nM.
Assay [13] deals with Beta-2 adrenergic receptor (Homo sapiens) (UniProt P07550). Conditions: Compound concentration 10.0 uM.
The target in assay [14] is T3, Dual specificity mitogen-activated protein kinase kinase 6 (Homo sapiens) (UniProt P52564).
T3 sequence (whole entry): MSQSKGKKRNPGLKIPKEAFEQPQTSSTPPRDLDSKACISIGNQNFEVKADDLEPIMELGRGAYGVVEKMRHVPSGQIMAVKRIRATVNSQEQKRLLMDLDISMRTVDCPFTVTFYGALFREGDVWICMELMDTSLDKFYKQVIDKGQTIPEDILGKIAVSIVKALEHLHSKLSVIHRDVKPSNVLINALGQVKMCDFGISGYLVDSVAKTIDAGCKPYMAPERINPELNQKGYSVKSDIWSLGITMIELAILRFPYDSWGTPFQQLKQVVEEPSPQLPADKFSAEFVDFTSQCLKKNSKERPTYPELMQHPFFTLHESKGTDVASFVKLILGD
The settings on record: Compound concentration 1000.0 nM.

Assay [15] has as its target Proto-oncogene tyrosine-protein kinase Src (Homo sapiens) (UniProt P12931). Conditions: Compound concentration 1000.0 nM.
Assay [16] addresses Rhodopsin kinase GRK1 (Homo sapiens) (UniProt Q15835). Conditions: Compound concentration 1000.0 nM.
The target of assay [17] is Serine/threonine-protein kinase 25 (Homo sapiens) (UniProt O00506). The settings on record: Compound concentration 1000.0 nM.
The target of assay [18] is Mitogen-activated protein kinase 7 (Homo sapiens) (UniProt Q13164). The settings on record: Compound concentration 1000.0 nM.
Assay [19] concerns Tyrosine-protein kinase ABL1 (Homo sapiens), P00519 [Q252H]. Conditions: Compound concentration 1000.0 nM.

Sequence of Activin receptor type-1-like (Homo sapiens) (P37023 whole entry): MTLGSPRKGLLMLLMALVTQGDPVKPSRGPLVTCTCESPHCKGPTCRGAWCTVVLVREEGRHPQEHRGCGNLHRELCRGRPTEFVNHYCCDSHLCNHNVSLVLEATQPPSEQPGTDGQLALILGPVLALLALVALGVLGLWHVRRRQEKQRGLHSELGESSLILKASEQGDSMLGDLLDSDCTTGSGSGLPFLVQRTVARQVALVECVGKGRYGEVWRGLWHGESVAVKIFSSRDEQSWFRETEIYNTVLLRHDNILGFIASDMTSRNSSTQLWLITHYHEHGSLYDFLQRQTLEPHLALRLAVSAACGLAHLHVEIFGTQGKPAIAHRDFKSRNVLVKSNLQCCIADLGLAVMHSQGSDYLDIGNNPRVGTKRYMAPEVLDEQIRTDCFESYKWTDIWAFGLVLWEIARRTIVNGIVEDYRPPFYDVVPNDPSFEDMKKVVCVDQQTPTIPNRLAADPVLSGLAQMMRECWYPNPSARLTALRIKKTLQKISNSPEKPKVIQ
Sequence of Serine/threonine-protein kinase 25 (Homo sapiens) (O00506 whole entry, looked up): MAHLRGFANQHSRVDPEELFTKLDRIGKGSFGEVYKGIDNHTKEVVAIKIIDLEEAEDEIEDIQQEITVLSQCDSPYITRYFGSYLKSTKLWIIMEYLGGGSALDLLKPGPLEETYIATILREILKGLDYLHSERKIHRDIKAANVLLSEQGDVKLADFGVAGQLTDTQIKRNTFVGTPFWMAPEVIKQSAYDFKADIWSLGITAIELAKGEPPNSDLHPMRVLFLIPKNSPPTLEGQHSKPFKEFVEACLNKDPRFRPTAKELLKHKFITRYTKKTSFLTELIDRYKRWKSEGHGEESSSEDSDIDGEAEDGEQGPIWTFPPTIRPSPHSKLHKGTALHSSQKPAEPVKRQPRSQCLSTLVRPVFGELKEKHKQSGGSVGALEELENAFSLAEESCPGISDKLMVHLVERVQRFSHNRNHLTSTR
Sequence of Mitogen-activated protein kinase kinase kinase 15 (Homo sapiens) (Q6ZN16 whole entry): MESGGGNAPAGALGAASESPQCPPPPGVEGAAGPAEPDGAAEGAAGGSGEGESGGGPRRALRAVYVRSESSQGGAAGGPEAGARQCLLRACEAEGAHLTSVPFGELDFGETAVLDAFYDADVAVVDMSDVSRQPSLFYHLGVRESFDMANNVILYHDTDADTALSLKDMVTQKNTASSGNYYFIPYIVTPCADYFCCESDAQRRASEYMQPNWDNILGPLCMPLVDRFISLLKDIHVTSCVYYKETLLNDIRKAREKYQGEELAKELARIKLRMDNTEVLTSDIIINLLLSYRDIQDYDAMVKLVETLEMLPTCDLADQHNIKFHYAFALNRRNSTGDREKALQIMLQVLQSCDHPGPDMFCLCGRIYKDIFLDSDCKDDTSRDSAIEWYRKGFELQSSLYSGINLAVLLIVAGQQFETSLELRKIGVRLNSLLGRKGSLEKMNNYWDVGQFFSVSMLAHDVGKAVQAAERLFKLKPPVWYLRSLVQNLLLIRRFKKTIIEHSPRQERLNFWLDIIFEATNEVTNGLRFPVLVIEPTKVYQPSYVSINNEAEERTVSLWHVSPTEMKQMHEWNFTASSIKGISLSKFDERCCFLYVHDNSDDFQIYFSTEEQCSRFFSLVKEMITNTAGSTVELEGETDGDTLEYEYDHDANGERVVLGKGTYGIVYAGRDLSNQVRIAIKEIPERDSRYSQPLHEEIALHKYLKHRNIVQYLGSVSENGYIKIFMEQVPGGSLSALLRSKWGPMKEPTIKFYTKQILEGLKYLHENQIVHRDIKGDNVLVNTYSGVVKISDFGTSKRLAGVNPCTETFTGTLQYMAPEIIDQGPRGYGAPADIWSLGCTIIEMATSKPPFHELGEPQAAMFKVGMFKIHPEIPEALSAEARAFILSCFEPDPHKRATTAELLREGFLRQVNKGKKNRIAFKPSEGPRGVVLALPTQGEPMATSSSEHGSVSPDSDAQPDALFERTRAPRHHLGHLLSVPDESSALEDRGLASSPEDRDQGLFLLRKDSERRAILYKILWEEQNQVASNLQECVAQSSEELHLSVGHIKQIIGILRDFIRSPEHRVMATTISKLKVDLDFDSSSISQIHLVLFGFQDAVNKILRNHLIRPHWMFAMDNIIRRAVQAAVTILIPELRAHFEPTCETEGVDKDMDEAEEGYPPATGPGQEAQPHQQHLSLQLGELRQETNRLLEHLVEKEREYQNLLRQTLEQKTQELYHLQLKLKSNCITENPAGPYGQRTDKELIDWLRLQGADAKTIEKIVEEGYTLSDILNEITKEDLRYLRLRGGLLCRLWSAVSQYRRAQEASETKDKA
Sequence of Beta-2 adrenergic receptor (Homo sapiens) (P07550 whole entry, looked up): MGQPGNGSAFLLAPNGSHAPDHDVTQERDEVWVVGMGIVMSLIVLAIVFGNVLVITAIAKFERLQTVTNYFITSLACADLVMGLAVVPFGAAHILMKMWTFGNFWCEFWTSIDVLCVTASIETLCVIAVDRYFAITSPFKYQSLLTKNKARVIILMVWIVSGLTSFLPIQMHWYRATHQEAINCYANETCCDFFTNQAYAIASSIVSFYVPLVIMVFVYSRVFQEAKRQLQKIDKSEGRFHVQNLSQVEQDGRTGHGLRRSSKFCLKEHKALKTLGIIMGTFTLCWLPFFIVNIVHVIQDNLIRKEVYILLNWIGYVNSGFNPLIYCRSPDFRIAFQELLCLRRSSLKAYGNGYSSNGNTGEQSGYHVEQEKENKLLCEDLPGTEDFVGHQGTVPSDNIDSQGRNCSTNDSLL
Sequence of Vascular endothelial growth factor receptor 3 (Homo sapiens) (P35916 whole entry): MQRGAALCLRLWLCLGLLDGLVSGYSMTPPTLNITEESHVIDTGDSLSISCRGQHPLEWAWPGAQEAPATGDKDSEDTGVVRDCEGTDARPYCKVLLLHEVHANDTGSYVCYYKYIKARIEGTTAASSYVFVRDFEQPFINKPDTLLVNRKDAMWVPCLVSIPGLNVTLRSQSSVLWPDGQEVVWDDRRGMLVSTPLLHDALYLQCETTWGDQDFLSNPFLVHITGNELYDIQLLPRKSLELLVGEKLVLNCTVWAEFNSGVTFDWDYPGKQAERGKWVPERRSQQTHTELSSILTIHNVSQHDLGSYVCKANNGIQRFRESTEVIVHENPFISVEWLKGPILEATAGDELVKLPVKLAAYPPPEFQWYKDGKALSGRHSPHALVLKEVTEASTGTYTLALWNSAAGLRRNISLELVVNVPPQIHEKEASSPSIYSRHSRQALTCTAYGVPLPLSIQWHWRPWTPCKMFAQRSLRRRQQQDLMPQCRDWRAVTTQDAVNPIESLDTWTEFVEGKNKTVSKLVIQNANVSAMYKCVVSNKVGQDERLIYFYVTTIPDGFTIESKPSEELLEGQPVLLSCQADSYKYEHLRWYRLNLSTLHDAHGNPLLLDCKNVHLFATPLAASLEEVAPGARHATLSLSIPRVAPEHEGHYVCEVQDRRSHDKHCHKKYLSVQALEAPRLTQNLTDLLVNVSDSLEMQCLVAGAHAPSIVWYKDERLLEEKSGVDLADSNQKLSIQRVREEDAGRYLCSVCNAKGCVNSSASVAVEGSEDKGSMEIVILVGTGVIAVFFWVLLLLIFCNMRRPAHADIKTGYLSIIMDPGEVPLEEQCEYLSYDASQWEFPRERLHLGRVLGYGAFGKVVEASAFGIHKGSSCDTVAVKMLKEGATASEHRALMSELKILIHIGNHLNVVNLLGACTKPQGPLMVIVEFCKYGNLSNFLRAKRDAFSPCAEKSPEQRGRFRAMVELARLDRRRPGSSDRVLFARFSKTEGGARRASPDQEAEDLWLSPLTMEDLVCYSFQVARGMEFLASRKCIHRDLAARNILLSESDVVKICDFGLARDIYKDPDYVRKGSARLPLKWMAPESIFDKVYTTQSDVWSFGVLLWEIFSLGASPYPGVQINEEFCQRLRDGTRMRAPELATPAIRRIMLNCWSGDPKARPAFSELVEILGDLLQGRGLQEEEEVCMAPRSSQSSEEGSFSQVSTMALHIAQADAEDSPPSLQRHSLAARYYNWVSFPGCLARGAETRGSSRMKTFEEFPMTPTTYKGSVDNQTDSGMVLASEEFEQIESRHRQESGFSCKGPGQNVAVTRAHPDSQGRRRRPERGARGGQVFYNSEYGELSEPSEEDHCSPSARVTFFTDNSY
Sequence of Calcium/calmodulin-dependent protein kinase kinase 2 (Homo sapiens) (Q96RR4 2-588 limits assumed): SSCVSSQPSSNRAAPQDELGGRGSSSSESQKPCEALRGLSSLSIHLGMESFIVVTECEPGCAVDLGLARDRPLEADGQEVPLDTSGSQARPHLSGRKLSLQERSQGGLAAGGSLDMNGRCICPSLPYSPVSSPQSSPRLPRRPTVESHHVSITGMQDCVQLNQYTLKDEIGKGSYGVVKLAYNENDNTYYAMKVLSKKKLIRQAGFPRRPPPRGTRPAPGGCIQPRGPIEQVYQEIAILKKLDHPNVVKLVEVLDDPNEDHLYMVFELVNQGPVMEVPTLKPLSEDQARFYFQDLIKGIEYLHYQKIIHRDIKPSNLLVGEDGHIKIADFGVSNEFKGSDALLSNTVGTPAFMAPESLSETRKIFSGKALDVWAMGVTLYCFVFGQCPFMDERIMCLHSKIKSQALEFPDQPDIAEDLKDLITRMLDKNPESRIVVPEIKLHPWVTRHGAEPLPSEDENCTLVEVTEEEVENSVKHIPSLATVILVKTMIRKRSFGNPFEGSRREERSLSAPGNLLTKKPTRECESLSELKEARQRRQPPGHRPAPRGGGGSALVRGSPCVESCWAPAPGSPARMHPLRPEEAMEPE
Sequence of Serine/threonine-protein kinase 38 (Homo sapiens) (Q15208 2-465 limits assumed): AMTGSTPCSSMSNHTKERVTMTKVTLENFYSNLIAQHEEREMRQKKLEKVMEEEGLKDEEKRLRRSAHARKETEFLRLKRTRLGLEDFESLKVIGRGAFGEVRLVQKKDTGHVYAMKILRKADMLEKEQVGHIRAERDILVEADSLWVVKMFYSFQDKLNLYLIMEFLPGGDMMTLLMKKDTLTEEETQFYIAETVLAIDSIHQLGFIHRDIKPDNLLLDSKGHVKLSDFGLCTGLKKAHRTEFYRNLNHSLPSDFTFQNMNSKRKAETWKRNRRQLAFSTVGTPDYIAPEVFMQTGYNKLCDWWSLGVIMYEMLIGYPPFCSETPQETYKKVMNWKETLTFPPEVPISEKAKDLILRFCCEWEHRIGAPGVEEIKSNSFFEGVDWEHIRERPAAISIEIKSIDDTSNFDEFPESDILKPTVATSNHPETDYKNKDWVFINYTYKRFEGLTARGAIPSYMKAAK

Consider `CN(C)C(=O)Cn1cc(-c2nc(C3(c4ccc(-c5cnc(N)nc5)cc4)CC3)no2)cn1` [BI 0153], for which the residual activity in assay [1] is 95%; in assay [2] it was 86%; in [3], 88%; in [4], 100%; in assay [5], 86%; in assay [6], 100%. In addition, the residual activity in assay [7] is 84%; in assay [8], 100%; in [9], 90%; in assay [10], 91%; in [11] it was 100%; in [12] it was 62%. Further, the residual activity is 100% in assay [14]; 84% in assay [15]; 74% in assay [16]; 100% in [17]; 97% in assay [18]; 48% in assay [19]. The inhibition in [13] is 3.55%.
With `CN(C)C(=O)Cn1cc(-c2nc([C@@](C)(c3ccc(-c4cnc(N)nc4)cc3)C3CC3)no2)cn1` [BI 665915], the residual activity in [1] is 88%; in assay [2] it was 84%; in [3] it was 100%; in [4] it was 100%; in [5], 84%; in assay [6], 99%. The residual activity in assay [7] is 80%; in [8], 81%; in assay [9], 100%; in [10] it was 85%; in [11] it was 89%; in [12], 100%. Moreover, the residual activity is 100% in assay [14]; 90% in assay [15]; 100% in assay [16]; 100% in assay [17]; 90% in assay [18]; 0% in [19]. In addition, the inhibition in [13] is 0.497%.

For the origin of these results see ChEMBL document CHEMBL4507276 (2021).
